Experimental data from patent US20210363591A1, “MAPK1 MUTATIONS AND DRUG SENSITIVITY” (The Chinese University of Hong Kong, priority 2020, published 2021).

Experiments:
[1] = system: FaDu-MAPK1 WT xenografts; assay: Erlotinib response of isogenic FaDu tumor xenografts expressing MAPK1-WT in nude mice
Excerpt: (§1) FaDu cells expressing MAPK1 WT, MAPK1 p.D321N and MAPK1 p.R135K respectively were inoculated into nude mice subcutaneously (8×10^5 cells per inoculation). Mice with tumor expressing respective MAPK1 WT/mutations were randomized into erlotinib (erlotinib dissolved in 10% 2-Hydroxypropyl-beta-cyclodextrin (HP-j-CD) or vehicle (10% HP-β-CD) treatment groups (N=8 tumors per group). Treatment started when tumors were palpable and reached the size ˜3×3-4×4 mm^2. Erlotinib or the vehicle control were administered by oral gavage (50 mg/kg erlotinib or the corresponding vehicle amount) for 5 consecutive days as indicated by the arrows on the X-axis. FIG. 2B: IHC staining showing membranous p-EGFR expression of these xenografts post erlotinib/vehicle treatments (N>3 per group). […] FIG. 2C: IHC staining showing corresponding pan-cytokeratin expression in these tumors post erlotinib/vehicle treatment (N>3 per group).
The VECTASTAIN Elite ABC Universal PLUS Kit Peroxidase (Horse Anti-Mouse/Rabbit IgG) (Cat: PKK-8200) was used for IHC. […]
Isogenic FaDu cells were infected with MAPK1-WT and MAPK1 mutants by retrovirus and injected into nude mice subcutaneously (8×10^5 cell per mouse, age of 4-5 weeks). […] Tumor volume was monitored and calculated by the equation: length×width^2/2 repeatedly for 5 consecutive days as indicated by the arrows on the X-axis of FIG. 2(a). […]

[2] = system: MAPK1p.D321N mutant tumors (FaDu xenografts); assay: Erlotinib response of isogenic FaDu tumor xenografts expressing MAPK1 p.D321N in nude mice
Excerpt: as §1
(§2) The VECTASTAIN Elite ABC Universal PLUS Kit Peroxidase (Horse Anti-Mouse/Rabbit IgG) (Cat: PKK-8200) was used for IHC. Cytokeratin mouse antibody (DAKO, Cat: M3515, 1:500) and Anti-EGFR (phosphor Y1173) antibody [E124] (Abcam, Cat: ab32578, 1:100) were used as primary antibodies.
(§3) Isogenic FaDu cells were infected with MAPK1-WT and MAPK1 mutants by retrovirus and injected into nude mice subcutaneously (8×10^5 cell per mouse, age of 4-5 weeks). Mice injected with respective infected FaDu cells were randomized into Erlotinib treatment group or Vehicle group (2 tumors born by each mice, 4 mice per group). Treatment started at day 6 after injection with 6 dose per week until day 15. Erlotinib (dissolved in 10% HP-j-CD) or vehicle control were administered orally at a dose of 50 mg/kg. Tumor volume was monitored and calculated by the equation: length×width^2/2 repeatedly for 5 consecutive days as indicated by the arrows on the X-axis of FIG. 2(a). The mice were sacrifice at the end-point of the experiment.

[3] = system: MAPK1p.R135K mutant xenografts (FaDu); assay: Erlotinib response of isogenic FaDu tumor xenografts expressing MAPK1 p.R135K in nude mice
Excerpt: as §1, §2, §3

C#Cc1cccc(Nc2ncnc3cc(OCCOC)c(OCCOC)cc23)c1 [erlotinib]
change in tumor size vs. vehicle control ([1]; erlotinib 50 mg/kg oral gavage, P=0.4080): did not result in any change in tumor size
change in membranous p-EGFR signal in the tumors (IHC) ([1]; erlotinib 50 mg/kg oral, vs. vehicle control): did not result in any change
tumor-negative (cytokeratin-negative) areas (IHC) ([2]; MAPK1p.D321N FaDu xenografts post erlotinib 50 mg/kg oral): concomitant increases in tumor-negative areas
membranous p-EGFR signals remaining in the tumors (IHC) ([2]; MAPK1p.D321N FaDu xenografts post erlotinib 50 mg/kg oral, untreated mutants 80-90% positive cells): less than 20%
reduction in tumor volume vs. vehicle treatment ([2]; MAPK1p.D321N FaDu xenografts, erlotinib 50 mg/kg oral gavage, P=0.0037): 60.3%
tumor-negative (cytokeratin-negative) areas (IHC) ([3]; MAPK1p.R135K FaDu xenografts post erlotinib 50 mg/kg oral): noticeable increases in tumor-negative areas
percent tumor cells bearing membranous p-EGFR staining (IHC) ([3]; MAPK1p.R135K FaDu xenografts post erlotinib 50 mg/kg oral, 90% in vehicle treated tumors): 50%
tumor size reduction vs. vehicle treatment ([3]; MAPK1p.R135K FaDu xenografts, erlotinib 50 mg/kg oral gavage, trend, P=0.0646): 28.0%
